Measurements published in PubChem BioAssay (NCI).
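Following 48 hours of exposure in 96-well plates, responses at five concentrations were used to interpolate endpoints linearly. Definition used: TGI = concentration required for complete inhibition of growth.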 Where a SMILES comes first, the peptide text is derived from it. The star is where a group is joined. Cbz = O=C(OCc1ccccc1)*; Boc = CC(C)(C)OC(=O)*; Bn = c1ccc(C*)cc1

Assays:
Assay in all cases: NCI tumour cell line growth inhibition, 48 h
[1] = system: HCT-15 colon
[2] = system: SN12C renal
[3] = system: UACC-257 melanoma

Row | SMILES | TGI [1] [µM] | TGI [2] [µM] | TGI [3] [µM]
1 | COc1ccc(Cc2c(N)[nH]c(=O)n(C)c2=O)cc1 | > 100 | > 100 | > 100
2 | c1ccc(-c2cs[s+]c2)cc1 | > 100 | > 100 | > 100
3 | C=C[C@H]1CC[C@H]2[C@@H]3CC=C4C[C@@H](OC5OCC(O)C(O)C5O)CC[C@]4(C)[C@H]3CC[C@]12C (stereo partly drawn) | > 100 | 33.2 | > 100
4 | CCOP1(=O)C=C(Sc2ccc([N+](=O)[O-])cc2[N+](=O)[O-])C(C)(C)O1 (stereo not drawn) | 36.7 | 41 | 25
5 | C(=Nc1ccc(-c2cc(-c3ccccc3)nc3ccc4ccccc4c23)cc1)c1ccccc1 | > 100 | > 100 | 92.1
6 | Cc1nn(C(=O)c2ccncc2)c2c1C(c1ccc(Cl)cc1)SC(N)=N2 (stereo not drawn) | > 10 | > 10 | > 10
7 | CC(C)(C)[Si](C)(C)OCC1OC(n2ccc(=O)[nH]c2=O)C(O[Si](C)(C)C(C)(C)C)[C@@]12O[C@H]2C(N)=O (stereo partly drawn) | 28.4 | 30.3 | > 100
8 | N#CCCSC1SC(=C2SC3=C(SCCS3)S2)SC1SCCC#N (stereo not drawn) | > 100 | > 100 | > 100
9 | COc1ccc(C(=O)c2sc(Nc3ccccc3)nc2N)cc1 | > 100 | > 100 | > 100
10 | C=C1CCC2CC1[C@@H](C(=O)c1c[nH]c3ccccc13)NC2(C)C (stereo partly drawn) | > 37.5 | > 37.5 | > 37.5
11 | CCCCCCCCCCCCCCCCCCNc1ccn(C2OC(CO)C(O)C2O)c(=O)n1 (stereo not drawn) | > 100 | > 100 | > 100
12 | C/C(=N\Nc1ccccc1Br)c1cccc(/C(C)=N/Nc2ccccc2Br)n1 | > 100 | > 100 | > 100
13 | CC(=O)CCC(=O)C(=[N+]=[N-])S(=O)(=O)c1ccccc1 | > 100 | > 100 | > 100
14 | Cc1cc(C)nc(NC(=S)Nc2ccccc2Cl)c1 | > 100 | > 100 | > 100
15 | CN1CCN(c2cc3c(cc2F)c(=O)c(C(=O)O)cn3C2CC2)CC1CC#N (stereo not drawn) | > 100 | > 100 | > 100
16 | O=c1c2c(c1=O)C1(SCCCS1)c1cc(Cl)ccc1O2 | > 100 | > 100 | > 100
17 | CCN(CC)CCC1CCCCN1CC(=O)N1c2ccccc2NC(=O)c2ccccc21 (stereo not drawn) | > 100 | > 100 | > 100
18 | COc1ccc(N=Nc2ccc3oc(=O)c(C(=O)Nc4ccccc4)cc3c2)cc1 | > 10 | > 10 | > 10
19 | COc1cc(NCc2ccc3nc(-c4ccccc4)c(N)nc3c2)cc(OC)c1OC | > 100 | > 100 | 51.4
20 | O=C(c1ccco1)n1c2ccc(Br)cc2c2nc3ccccc3nc21 | > 100 | > 100 | > 100

Row | SMILES | TGI [1] [µM] | TGI [2] [µM] | TGI [3] [µM]
21 | C=CC(C)(C)C(=C)C(=O)N(C)c1ccccc1I | > 100 | > 100 | > 100
22 | CCCc1c(O)c(=O)c2c(OC)cc(OC)c3c4c(OC)cc(OC)c5c(=O)c(O)c(CCC)c(c1c23)c54 | 11.6 | 22.3 | 7.06
23 | N#CCC(=O)c1cc(OCc2cc(OCc3ccc(Br)cc3)cc(OCc3ccc(Br)cc3)c2)cc(OCc2cc(OCc3ccc(Br)cc3)cc(OCc3ccc(Br)cc3)c2)c1 | > 100 | > 100 | > 100
24 | Cc1nc(-n2[nH]c(C)c(CCO)c2=O)[nH]c(=O)c1CCO | > 100 | > 100 | > 100
25 | CCCCn1cnnc1NS(=O)(=O)c1cc(C)c(Cl)cc1SCC(=O)O | > 10 | > 10 | > 10
26 | CC(C)(C)OC(=O)NC(Cc1ccc(OCc2ccccc2)cc1)C(=O)NC(CCCCNC(=O)OCc1ccccc1)C(=O)O (stereo not drawn) (Boc-Tyr(Bn)-Lys(Cbz)-OH; configuration not given here) |  | > 100 | > 100
27 | COc1cc(C[C@H]2C(=O)OC[C@@H]2Cc2ccc(OC)c(OC)c2)cc(OC)c1 | > 100 | > 100 | > 100
28 | C#CCOCn1ccc(=O)[nH]c1=O | > 100 | > 100 | > 100
29 | O=C(N/N=C/c1ccc([N+](=O)[O-])cc1)c1cccc2nc3ccccc3nc12 | > 100 | > 100 | > 100
30 | O=C1NC(=S)NC(=O)C1C(c1ccc([N+](=O)[O-])cc1)C1C(=O)NC(=S)NC1=O | > 100 | > 100 | > 100
31 | CN=CN(C)c1c2ccccc2nc2ccccc12 | > 100 | > 100 | > 100
32 | Cc1cnc(/N=c2\sc(C)cn2-c2ncc(C)s2)s1 | > 100 | > 100 | > 100
33 | CCN(CCCN(CC)C(=O)Nc1ccccc1)C(=O)Nc1ccccc1 | > 100 | > 100 | > 100
34 | C=CCOc1ccc(/C(N=Nc2ccccc2)=N/NC(=O)c2ccccc2)cc1OC | > 100 | > 100 | > 100
35 | O=c1[nH]/c(=C/c2ccc(OCc3ccccc3)cn2)c(=O)[nH]/c1=C/c1ccc(Cl)cc1 | > 100 | > 100 | > 100
36 | N#Cc1c(-c2ccc(Cl)cc2)c(C#N)c(=O)n(NS(=O)(=O)c2ccccc2)c1S | 49.6 | 78 | > 100
37 | NC1=NNC2(C(=O)N1)c1ccccc1-c1ccccc12 | > 10 | > 10 | 
38 | CCOP(=O)(OCC)/C(C#N)=C/c1ccc(-c2ccc(F)cc2F)o1 | 28.7 | 29.7 | 26.8
39 | CCOC(=O)NC(C(=O)OCC)C(F)(F)F (stereo not drawn) | > 100 | > 100 | > 100
40 | c1cc(CSP234N5CCN2CCN3CCN4CC5)ccc1CSP123N4CCN1CCN2CCN3CC4 | > 100 | > 100 | > 100

Row | SMILES | TGI [1] [µM] | TGI [2] [µM] | TGI [3] [µM]
41 | CCN1CN(c2ccccc2)C2(CCN(CCCSc3ccc(F)cc3)CC2)C1=O | 24.9 | 20.5 | 17.1
42 | CC1=C(O)C(=O)C[C@]2(C)[C@H]3CC=C4[C@@H]5CC(C)(C)CC[C@@H]5C(=O)[C@H](O)[C@@]4(C)[C@]3(C)CC[C@@H]12 | > 50 | > 50 | > 50
43 | CCN(CC)c1ccc(C2SCC(=O)N2c2ccc(NC(=O)c3ccc(N4C(=O)CSC4c4ccc(N(CC)CC)cc4)cc3)cc2)cc1 (stereo not drawn) | > 100 | > 100 | > 100
44 | Cc1cc(OCc2nn(CN3CCN(C)CC3)c(=S)n2/N=C/c2ccc(-c3ccc(Cl)cc3Cl)o2)ccc1Cl | > 100 |  | > 100
45 | CC(=O)OC1COC(n2nc(/C=C/c3ccc(Cl)cc3)c(=O)n(/N=C/c3ccccc3)c2=S)C(OC(C)=O)C1OC(C)=O (stereo not drawn) | > 100 | > 100 | > 100
46 | COC(=O)C1CC=C(SC(=O)c2ccccc2)N1C(=O)c1ccccc1 (stereo not drawn) | > 100 |  | > 100
47 | CCOC(=O)c1sc2nc(SC)nc3c2c1NCN3c1ccc2c(c1)OCCCO2 | > 100 | > 100 | > 100
48 | OCC1OC(NCCNCCNC2OC(CO)C(O)C(O)C2O)C(O)C(O)C1O (stereo not drawn) | > 100 | > 100 | > 100
49 | Cc1nc2ccc(F)cc2c2c1CCO2 | > 100 | > 100 | > 100
50 | COC(=O)[C@@H](O)[C@]1(C(=O)OC)C2O[C@@H](OC)[C@@H]1CCCCCC[C@H]2O | > 100 | > 100 | > 100
51 | OCC1OC(Oc2cc(O)cc(/C=C/c3ccc(O)cc3)c2)C(O)C(O)C1O (stereo not drawn) | > 100 | > 100 | > 100
52 | COc1ccc(-c2cc(-c3ccc(Nc4ccnc5cc(Cl)ccc45)cc3)nc(N)c2C#N)cc1 | > 100 |  | 
53 | COc1cc(/C=C/C(=O)OC2C(O)C3CC(OC(=O)c4cc(OC)c(OC)c(OC)c4)CC2N3C)cc(OC)c1OC (stereo not drawn) | > 50 | > 50 | > 50
54 | CC(O)(/C=C/c1ccccc1)P(=O)(O)c1ccccc1 (stereo not drawn) | > 100 | > 100 | > 100
55 | c1ccc(-c2ccc(-c3cc4ccccc4[nH]3)cc2)cc1 | > 100 | > 100 | > 100
56 | COc1ccc(C2C3CCc4ccccc4C3=NN2S(=O)(=O)c2ccc(Cl)cc2)cc1 (stereo not drawn) | 4.52 | > 100 | > 100
57 | COC(=O)C12OC(C)(C(CC(=O)OC(C)(C)C)C1=O)C1C(=O)N(c3ccccc3)C(=O)C12 (stereo not drawn) | > 100 | > 100 | > 100
58 | C/C(=N\NC(=S)NC1CCCC1)c1ccccn1 | > 100 | > 100 | 
59 | COc1cc2c(cc1OC)CC(=O)c1cc(OC)c(OC)cc1/C=C\2 | > 12.5 | > 12.5 | > 12.5
60 | CSc1nc(-c2ccc(C)cc2)c(C#N)c(=O)[nH]1 | > 100 | > 100 | > 100
